Here are results for eight compounds from ChEMBL document CHEMBL1909046, “DrugMatrix in vitro pharmacology data”.

Mu-type opioid receptor, sequence (P35372 whole entry): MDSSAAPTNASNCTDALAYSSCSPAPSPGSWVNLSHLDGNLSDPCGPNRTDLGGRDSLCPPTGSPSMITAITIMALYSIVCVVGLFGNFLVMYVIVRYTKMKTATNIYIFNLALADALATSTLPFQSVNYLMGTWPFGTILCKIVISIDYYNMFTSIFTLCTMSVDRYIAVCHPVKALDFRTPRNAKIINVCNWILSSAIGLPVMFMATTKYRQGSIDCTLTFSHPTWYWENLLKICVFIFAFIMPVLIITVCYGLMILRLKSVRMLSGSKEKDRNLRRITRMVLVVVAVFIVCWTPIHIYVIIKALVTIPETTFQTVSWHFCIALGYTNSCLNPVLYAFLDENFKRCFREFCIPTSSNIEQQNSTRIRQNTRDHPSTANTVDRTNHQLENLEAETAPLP

For the first data set, the target named is Cytochrome P450 2E1 (Homo sapiens, UniProt P05181). To be noted: bti-tn-5b1-4. Also: in other assays of this panel Not Active means under 50% inhibition at 10 µM.
Cytochrome P450 2E1, sequence (P05181 whole entry): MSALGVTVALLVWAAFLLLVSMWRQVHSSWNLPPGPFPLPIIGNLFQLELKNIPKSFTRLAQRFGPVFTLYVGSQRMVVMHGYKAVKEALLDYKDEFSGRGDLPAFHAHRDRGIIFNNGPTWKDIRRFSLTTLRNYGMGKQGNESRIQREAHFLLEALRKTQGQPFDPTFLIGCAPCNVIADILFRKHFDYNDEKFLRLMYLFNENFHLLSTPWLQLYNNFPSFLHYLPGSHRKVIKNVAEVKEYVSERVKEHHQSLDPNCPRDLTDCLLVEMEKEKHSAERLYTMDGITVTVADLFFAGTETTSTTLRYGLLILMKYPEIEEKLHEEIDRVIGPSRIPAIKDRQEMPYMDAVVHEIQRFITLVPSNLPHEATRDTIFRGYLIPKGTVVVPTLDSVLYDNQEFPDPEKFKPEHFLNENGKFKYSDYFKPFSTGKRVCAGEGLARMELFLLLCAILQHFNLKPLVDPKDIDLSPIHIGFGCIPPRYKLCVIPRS
Turning to LIPOPOLYSACCHARIDE E. COLI O55:B5, the IC50 entry is listed as “Not Active” and the Ki result is given as “Not Active”.

As for `Cc1ccc(/N=C/N(C)/C=N/c2ccc(C)cc2C)c(C)c1` [AMITRAZ], the IC50 result is “Not Active” and the Ki result was “Not Active”.

As to `Cc1ccc2cc3c(ccc4ccccc43)c3c2c1CC3` [3-METHYLCHOLANTHRENE], the IC50 entry was “Not Active” and the Ki result is “Not Active”.

For the compound `CC1=C2C(=CO[C@H](C)[C@H]2C)C(O)=C(C(=O)O)C1=O` [CITRININ], the IC50 result is reported as “Not Active” and the Ki entry is reported as “Not Active”.

Another data set concerns the target Protein phosphatase 3 catalytic subunit alpha (Homo sapiens, UniProt Q08209). On the set-up: species or system Escherichia coli.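 Also: inhibition of calcineurin (PP2B) enzyme activity, measured with DiFMUP as the substrate; in other assays of this panel Not Active means under 50% inhibition at 10 µM.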
Conditions: not given
For `C[C@]12CC[C@@H]3c4ccc(O)cc4CC[C@H]3[C@@H]1CCC2=O` [ESTRONE], the IC50 result is “Not Active”.

`CN(C)c1nc(N(C)C)nc(N(C)C)n1` [ALTRETAMINE]: the IC50 result is “Not Active”.

`N=C(N)NCCN1CCCCCCC1` [GUANETHIDINE]: the IC50 result was “Not Active”.

In the case of LIPOPOLYSACCHARIDE E. COLI O55:B5, the IC50 result is listed as “Not Active” and the Ki entry is listed as “Not Active”.

Take `Nc1c(Br)cc(Br)cc1CN[C@H]1CC[C@H](O)CC1` [AMBROXOL]: the IC50 result was “Not Active”.

Take `Cc1ccc(/N=C/N(C)/C=N/c2ccc(C)cc2C)c(C)c1` [AMITRAZ]: the IC50 result is “Not Active”.

Take `Cc1ccc2cc3c(ccc4ccccc43)c3c2c1CC3` [3-METHYLCHOLANTHRENE]: the IC50 entry is given as “Not Active”.

As to `CC1=C2C(=CO[C@H](C)[C@H]2C)C(O)=C(C(=O)O)C1=O` [CITRININ], the IC50 entry was “Not Active”.

For another data set, the target named is T1, Cytochrome P450 2A6 (Homo sapiens, UniProt P11509). Also: in other assays of this panel Not Active means under 50% inhibition at 10 µM.
T1 sequence (P11509 whole entry): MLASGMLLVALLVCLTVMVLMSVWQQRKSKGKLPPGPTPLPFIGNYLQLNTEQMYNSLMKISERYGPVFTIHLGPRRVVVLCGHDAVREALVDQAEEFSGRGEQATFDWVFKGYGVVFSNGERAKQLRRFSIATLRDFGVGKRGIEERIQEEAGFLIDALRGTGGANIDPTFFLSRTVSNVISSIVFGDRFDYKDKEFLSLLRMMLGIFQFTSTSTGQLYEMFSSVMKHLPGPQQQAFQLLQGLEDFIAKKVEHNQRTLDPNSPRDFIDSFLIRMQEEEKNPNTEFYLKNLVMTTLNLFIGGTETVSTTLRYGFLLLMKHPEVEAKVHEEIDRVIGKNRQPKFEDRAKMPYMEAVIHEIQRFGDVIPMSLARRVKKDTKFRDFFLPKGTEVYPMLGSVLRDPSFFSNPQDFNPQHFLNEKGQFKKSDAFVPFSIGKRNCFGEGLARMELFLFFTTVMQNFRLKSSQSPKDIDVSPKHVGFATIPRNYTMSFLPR
To be noted: bti-tn-5b1-4.
For LIPOPOLYSACCHARIDE E. COLI O55:B5, the IC50 result is “Not Active” and the Ki entry was “Not Active”.

In the case of `Cc1ccc(/N=C/N(C)/C=N/c2ccc(C)cc2C)c(C)c1` [AMITRAZ], the IC50 result is “Not Active” and the Ki entry is on record as “Not Active”.

`Cc1ccc2cc3c(ccc4ccccc43)c3c2c1CC3` [3-METHYLCHOLANTHRENE]: the IC50 result is “Not Active” and the Ki entry was “Not Active”.

As for `CC1=C2C(=CO[C@H](C)[C@H]2C)C(O)=C(C(=O)O)C1=O` [CITRININ], the IC50 entry is on record as “Not Active” and the Ki result was “Not Active”.

Another data set addresses Mu-type opioid receptor (Homo sapiens, UniProt P35372). Description: DRUGMATRIX: Opiate mu (OP3, MOP) radioligand binding (ligand: [3H] Diprenorphine). The following applies: cho-k1; Not Active = under 50% inhibition at 10 µM. It is filed as cell membranes, CHO-K1, Membrane.
As to `C[C@]12CC[C@@H]3c4ccc(O)cc4CC[C@H]3[C@@H]1CCC2=O` [ESTRONE], the IC50 result was “Not Active”.

For the compound `CN(C)c1nc(N(C)C)nc(N(C)C)n1` [ALTRETAMINE], the IC50 result is reported as “Not Active”.

Turning to `N=C(N)NCCN1CCCCCCC1` [GUANETHIDINE], the IC50 entry was “Not Active”.

`Nc1c(Br)cc(Br)cc1CN[C@H]1CC[C@H](O)CC1` [AMBROXOL]: the IC50 entry is given as “Not Active”.

System in the next data set: not listed separately
Description: DRUGMATRIX: Potassium Channel [KATP] radioligand binding (ligand: [3H] Glyburide). It is filed as cell membranes, Membrane. To be noted: hit-t15; Not Active = under 50% inhibition at 10 µM.
`C[C@]12CC[C@@H]3c4ccc(O)cc4CC[C@H]3[C@@H]1CCC2=O` [ESTRONE]: the IC50 entry is reported as “Not Active” and the Ki result is listed as “Not Active”.

As for `CN(C)c1nc(N(C)C)nc(N(C)C)n1` [ALTRETAMINE], the IC50 result was “Not Active” and the Ki result is “Not Active”.

Turning to `N=C(N)NCCN1CCCCCCC1` [GUANETHIDINE], the IC50 result was “Not Active” and the Ki entry was “Not Active”.

As for LIPOPOLYSACCHARIDE E. COLI O55:B5, the IC50 result was “Not Active” and the Ki entry is given as “Not Active”.

On to `Nc1c(Br)cc(Br)cc1CN[C@H]1CC[C@H](O)CC1` [AMBROXOL], for which the IC50 entry was “Not Active” and the Ki result was “Not Active”.

With `Cc1ccc(/N=C/N(C)/C=N/c2ccc(C)cc2C)c(C)c1` [AMITRAZ], the IC50 entry is reported as “Not Active” and the Ki entry is “Not Active”.

On to `Cc1ccc2cc3c(ccc4ccccc43)c3c2c1CC3` [3-METHYLCHOLANTHRENE], for which the IC50 result is “Not Active” and the Ki entry is on record as “Not Active”.

For `CC1=C2C(=CO[C@H](C)[C@H]2C)C(O)=C(C(=O)O)C1=O` [CITRININ], the IC50 entry is “Not Active” and the Ki entry is “Not Active”.

The target in a further data set is T2, Alpha-2C adrenergic receptor (Homo sapiens, UniProt P18825).
T2 sequence (P18825 whole entry): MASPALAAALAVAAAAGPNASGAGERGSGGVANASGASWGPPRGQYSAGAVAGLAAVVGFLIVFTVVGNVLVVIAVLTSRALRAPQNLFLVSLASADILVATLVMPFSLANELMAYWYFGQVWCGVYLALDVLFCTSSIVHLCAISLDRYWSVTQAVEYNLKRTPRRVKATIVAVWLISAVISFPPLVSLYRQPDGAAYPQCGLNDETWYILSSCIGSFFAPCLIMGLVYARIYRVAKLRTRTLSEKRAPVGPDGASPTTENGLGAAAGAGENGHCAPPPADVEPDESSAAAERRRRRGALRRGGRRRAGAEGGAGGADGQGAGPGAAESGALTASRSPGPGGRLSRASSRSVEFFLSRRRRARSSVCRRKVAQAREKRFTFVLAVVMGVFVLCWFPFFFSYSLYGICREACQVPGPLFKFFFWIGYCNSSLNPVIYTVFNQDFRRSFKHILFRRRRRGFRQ
Put plainly: DRUGMATRIX: Adrenergic Alpha-2C radioligand binding (ligand: [3H] MK-912). It is filed as cell membranes, Sf9, Membrane. The following applies: sf9.
As to `C[C@]12CC[C@@H]3c4ccc(O)cc4CC[C@H]3[C@@H]1CCC2=O` [ESTRONE], the IC50 result was “Not Active”.

`CN(C)c1nc(N(C)C)nc(N(C)C)n1` [ALTRETAMINE]: the IC50 result is listed as “Not Active”.

Take `N=C(N)NCCN1CCCCCCC1` [GUANETHIDINE]: the IC50 result is “Not Active”.

On to LIPOPOLYSACCHARIDE E. COLI O55:B5, for which the IC50 entry was “Not Active” and the Ki result is on record as “Not Active”.

In the case of `Nc1c(Br)cc(Br)cc1CN[C@H]1CC[C@H](O)CC1` [AMBROXOL], the IC50 entry was “Not Active”.

`Cc1ccc(/N=C/N(C)/C=N/c2ccc(C)cc2C)c(C)c1` [AMITRAZ]: the IC50 result is “Not Active”.

On to `Cc1ccc2cc3c(ccc4ccccc43)c3c2c1CC3` [3-METHYLCHOLANTHRENE], for which the IC50 entry was “Not Active”.

On to `CC1=C2C(=CO[C@H](C)[C@H]2C)C(O)=C(C(=O)O)C1=O` [CITRININ], for which the IC50 result is “Not Active”.

The target of the next data set is Glycine receptor (Rattus norvegicus, UniProt P22771+P24524+P07727+P20781). It is filed as cell membranes, Wistar, Spinal cord, Membrane. Also: in other assays of this panel Not Active means under 50% inhibition at 10 µM.
Conditions: not given
On to `C[C@]12CC[C@@H]3c4ccc(O)cc4CC[C@H]3[C@@H]1CCC2=O` [ESTRONE], for which the IC50 entry is on record as “Not Active”.

With `CN(C)c1nc(N(C)C)nc(N(C)C)n1` [ALTRETAMINE], the IC50 entry is listed as “Not Active”.

For the compound `N=C(N)NCCN1CCCCCCC1` [GUANETHIDINE], the IC50 entry is recorded as “Not Active”.

On to LIPOPOLYSACCHARIDE E. COLI O55:B5, for which the IC50 entry is reported as “Not Active” and the Ki result is recorded as “Not Active”.

Take `Nc1c(Br)cc(Br)cc1CN[C@H]1CC[C@H](O)CC1` [AMBROXOL]: the IC50 entry is reported as “Not Active”.

For the compound `Cc1ccc(/N=C/N(C)/C=N/c2ccc(C)cc2C)c(C)c1` [AMITRAZ], the IC50 result is reported as “Not Active”.

Consider `Cc1ccc2cc3c(ccc4ccccc43)c3c2c1CC3` [3-METHYLCHOLANTHRENE], for which the IC50 result is given as “Not Active”.

Take `CC1=C2C(=CO[C@H](C)[C@H]2C)C(O)=C(C(=O)O)C1=O` [CITRININ]: the IC50 result is on record as “Not Active”.

System in another data set: not listed separately
Put plainly: DRUGMATRIX: GABAA, Chloride Channel, TBOB radioligand binding (ligand: [3H] TBOB). Format: cell membranes, Rattus norvegicus, Wistar, Cerebral cortex, Membrane. The following applies: Not Active = under 50% inhibition at 10 µM.
With `C[C@]12CC[C@@H]3c4ccc(O)cc4CC[C@H]3[C@@H]1CCC2=O` [ESTRONE], the IC50 entry is “Not Active” and the Ki entry is reported as “Not Active”.

As for `CN(C)c1nc(N(C)C)nc(N(C)C)n1` [ALTRETAMINE], the IC50 entry is reported as “Not Active” and the Ki entry is “Not Active”.

`N=C(N)NCCN1CCCCCCC1` [GUANETHIDINE]: the IC50 entry is “Not Active” and the Ki result is recorded as “Not Active”.

On to LIPOPOLYSACCHARIDE E. COLI O55:B5, for which the IC50 entry is recorded as “Not Active” and the Ki result is “Not Active”.

With `Nc1c(Br)cc(Br)cc1CN[C@H]1CC[C@H](O)CC1` [AMBROXOL], the IC50 entry was “Not Active” and the Ki entry is “Not Active”.

As to `Cc1ccc(/N=C/N(C)/C=N/c2ccc(C)cc2C)c(C)c1` [AMITRAZ], the IC50 entry is reported as “Not Active” and the Ki entry is “Not Active”.

Regarding `Cc1ccc2cc3c(ccc4ccccc43)c3c2c1CC3` [3-METHYLCHOLANTHRENE], the IC50 entry was “Not Active” and the Ki entry is given as “Not Active”.

As for `CC1=C2C(=CO[C@H](C)[C@H]2C)C(O)=C(C(=O)O)C1=O` [CITRININ], the IC50 entry is reported as “Not Active” and the Ki result is reported as “Not Active”.
